Here are results for 16 molecules from PMC7890253, “Signal Transduction Mechanisms for Glucagon-Induced Somatolactin Secretion and Gene Expression in Nile Tilapia (Oreochromis niloticus) Pituitary Cells” (Frontiers in Endocrinology, 2021).

The test system of assay [1] is tilapia NIL cells. The assay is described as follows: SL release in primary NIL cell culture (ELISA). Conditions: for SL release, dose dependence: mean ± SEM (N = 3). The class given is cell-based, Nile tilapia (Oreochromis niloticus). The method, then:
(§1) To examine the direct effects of GCG on SL release and gene expression in the pituitary, tilapia NIL cells were prepared by the controlled trypsin/DNase II digestion method as described previously ([30]). After that, NIL cells were seeded in poly-D-lysine precoated 24-well plates at ~1.5 × 10^6 cells/mL/well and incubated with test substances for the duration as indicated. After drug treatment, SL release in conditioned medium was immediately determined by the enzyme-linked immunosorbent assay (ELISA) with a detectable range from 0.5 to 500 ng/mL for SL. The assay was optimized in our laboratory by utilizing a polyclonal antibody against tilapia SL ([31]) and a SL-biotin conjugate (GenScript, Nanjing, China). Meanwhile, the cells were rinsed with cold PBS before being lysed by TRIzol reagent (Life Technologies) to measure SL gene expression. After cDNA synthesis, qPCR assays were performed using the primers specific for tilapia SL (forward primer: 5’ […] 3’ and reverse primer: 5’ […] 3’). The same qPCR conditions were maintained as described above, and gene expression levels were analyzed using the 2^−ΔΔCT method. In these experiments, β-actin was used as an internal control for normalizing genes of interest. It has been reported that β-actin is used to normalize SL gene expression in tilapia ([14]), goldfish ([32]), and red drum ([33]).
(§2) For qPCR and ELISA assays, NIL cells were prepared from 30–40 individual fish in each experimental run. For cAMP and IP3 measurements, NIL cells were prepared from ~30 individual fish in each experimental run. For Ca^2+ signal measurements, NIL cells were prepared from 10–12 individual fish. For the Western blot analysis, NIL cells were prepared from ~30 individual fish in each experimental run. Three biological replicates were analyzed, and four technical repeats were performed per sample. All results are expressed as the mean ± SEM (N = 3) and analyzed with ANOVA followed by post-hoc Bonferroni’s test for multiple comparisons. A value of P < 0.05 was regarded as statistically significant. All analyses were performed with GraphPad Prism Software, Inc (San Diego, CA).
In general terms: An ELISA detects its analyte on a solid surface through an enzyme-linked reagent.

In assay [2] the test system is tilapia NIL cells. Kind of assay: SL gene expression in primary NIL cell culture (qPCR). The class given is cell-based, Nile tilapia (Oreochromis niloticus). Particulars: for effect on basal SL gene expression: 10 µM test substance. Here is the method: as §1, §2
(In general: In qPCR the cycle at which signal appears reflects the starting amount.)

Assay [3] concerns rat hepatocytes. Particulars: ref [57]; cited from earlier work.
For assay [4], the system named is rat hepatocytes. Conditions: ref Mine et al. ([59]); cited from earlier work. The source says: Although pituitary GCG-mediated molecular signaling pathways remain largely unknown, GCG action in fish hepatocytes is mediated by the AC/cAMP/PKA pathway ([52], [55]). These findings promote us to investigate similar signaling mechanisms involved in GCGb action in tilapia pituitary cells. […] In contrast, both basal and GCGb-induced SL release and gene expression ...

The next assay concerns fish glucagon. Particulars: ref [18]; cited from earlier work. Here is the method:
Male Nile tilapia (O. niloticus) with a bodyweight range of 45-55 g were purchased from local aquaria and maintained in aerated 300-liter aquaria at 28°C under 12 h dark/12 h light photoperiod. During tissue sampling, the fish were sacrificed by spinosectomy after anesthesia with 0.05% MS222 (Sigma, St Louis, MO) according to the procedures approved by the Animal Ethics Committee of Sichuan University. The tilapia and human GCGs and the des-His1-[Nle9-Ala11-Ala16] GCG antagonist were synthesized by GL Biochem (Shanghai, China).

The test system of another assay is tilapia GCGRa. The assay is described as follows: CRE-luciferase reporter assay, HEK293 cells stably expressing tilapia GCGRa. The class given is cell-based, Nile tilapia (Oreochromis niloticus). Here is the method: (§3) The open reading frames (ORFs) of tilapia Gcgra and Gcgrb were subcloned in the pcDNA3.1 (+) expression vector (Invitrogen) using high-fidelity Taq DNA polymerase (TOYOBO, Japan) and then HEK293 cell lines with stable expression of pcDNA3.1-GCGRa, and pcDNA3.1-GCGRb, respectively, were established in the presence of 500 µg/mL […] (Invitrogen). The expression of Gcgra and Gcgrb transcripts in these stably transfected cell lines was confirmed by qPCR, and the colonies with the same levels of Gcgra and Gcgrb mRNA expression were selected for subsequent studies. After that, HEK293 cells were co-transfected with the cAMP response element (CRE)-luciferase reporter plasmid, and Renilla luciferase plasmid (pTK-RL) (Promega, Madison, WI), encoding the Renilla luciferase protein, as the internal control using Lipofectamine in Opti-MEM (Invitrogen). […] The luciferase activity of cellular lysates was determined using a Dual-Glo luciferase assay kit (Promega), and the signal was read using a microplate reader (Fluostar OPTIMA, BMGLabtech). The luciferase activities in each treatment group were expressed as relative fold increase compared with the control group.
(§4) Figure 3 Functional characterization of tilapia GCGRa and GCGRb expressed in HEK293 cells. […] All results are expressed as the mean ± SEM (N = 3).
(Reporter assays use an easily measured gene product as a stand-in for the process of interest.)

The subject of the next assay is tilapia GCGRb. The assay is described as follows: CRE-luciferase reporter assay, HEK293 cells stably expressing tilapia GCGRb. The class given is cell-based, Nile tilapia (Oreochromis niloticus). Particulars: HEK293, CRE-luciferase (cAMP), 24 h treatment, 37°C, Luc ratio to Renilla, N = 3. Here is the method:
as §3, §4

For the next assay, the system named is GCGRb. Particulars: ref [42]; cited from earlier work. The source says:
Identification of multiple types of Gcgrs raises a question of whether a given physiological response is mediated by either a specific receptor or multiple types of receptors. We examined the functional similarity and difference of the two tilapia GCGRs.

Setting [5] is: 10 µM test substance with GCGb 10 nM, 24 h.
[6] abbreviates: 5 µM test substance with GCGb 10 nM, 24 h.
The mark [7] stands for this setting: 1 µM test substance with GCGb 10 nM, 24 h.
Where [8] appears, read: 5 µM test substance with GCGb 10 nM (duration not given).
Setting [9] is: 50 nM test substance with GCGb 10 nM (duration not given).

Regarding `CN(C)CCCn1cc(C2=C(c3c[nH]c4ccccc34)C(=O)NC2=O)c2ccccc21` [GF109203X], the “effect on GCGb-stimulated SL release” value in the assay with tilapia NIL cells [1] (20 µM test substance with GCGb 10 nM, 24 h) is on record as “neither compound was able to block GCGb stimulated SL release”.

In the case of `O=S(=O)(NCCNC/C=C/c1ccc(Br)cc1)c1cccc2cnccc12` [H89], the “effect on GCGb-stimulated SL release” value with tilapia NIL cells [1] (setting [5]) is “blocked”. In the assay with tilapia NIL cells [1] (10 µM test substance, 24 h), the “effect on basal SL release” value is given as “blocked the basal levels”. Besides, the “effect on GCGb-stimulated SL mRNA expression” value in the assay with tilapia NIL cells [2] (setting [5]) is “blocked”. In addition, the “effect on basal SL gene expression” value in the assay with tilapia NIL cells [2] (24 h) is “blocked the basal levels”.

As to `CN([C@@H](Cc1ccc(OS(=O)(=O)c2cccc3cnccc23)cc1)C(=O)N1CCN(c2ccccc2)CC1)S(=O)(=O)c1cccc2cnccc12` [KN62], the “effect on GCGb-stimulated SL release” value with tilapia NIL cells [1] (setting [6]) was “abolished”. In the assay on tilapia NIL cells [2] (setting [6]), the “effect on GCGb-stimulated SL mRNA expression” value was “abolished”.

Turning to `Cl.c1ccc(C2CCCC2NC2=NCCCCCCCCCCC2)cc1` (stereo not shown) [MDL12330A], the “effect on GCGb-stimulated SL release” value in the assay on tilapia NIL cells [1] (setting [5]) is “blocked”. Further, the “effect on basal SL release” value with tilapia NIL cells [1] (10 µM test substance, 24 h) was “blocked the basal levels”. The “effect on GCGb-stimulated SL mRNA expression” value in the assay on tilapia NIL cells [2] (setting [5]) is recorded as “blocked”. The “effect on basal SL gene expression” value in the assay with tilapia NIL cells [2] (24 h) is listed as “blocked the basal levels”.

In the case of `COc1ccc2c(c1)CC[C@@H]1[C@@H]2CC[C@]2(C)[C@@H](NCCCCCCN3C(=O)C=CC3=O)CC[C@@H]12` [U73122], in the assay on tilapia NIL cells [1] (setting [5]), the “effect on GCGb-stimulated SL release” value was “blocked the GCGb-stimulated SL release and mRNA expression”. Also, the “effect on GCGb-stimulated SL mRNA expression” value with tilapia NIL cells [2] (setting [5]) is “blocked the GCGb-stimulated SL release and mRNA expression”.

As for `Clc1ccc(C(c2ccc(Cl)cc2)n2cc[n+](CC(OCc3ccc(Cl)cc3Cl)c3ccc(Cl)cc3Cl)c2)cc1` (stereo not shown) [calmidazolium], in the assay on tilapia NIL cells [1] (setting [7]), the “effect on GCGb-stimulated SL release” value is “abolished”. The “effect on GCGb-stimulated SL mRNA expression” value in the assay on tilapia NIL cells [2] (setting [7]) is “abolished”.

Consider `COc1c(C[C@@H](C)OC(=O)Oc2ccc(O)cc2)c2c3c(C[C@@H](C)OC(=O)c4ccccc4)c(OC)c(=O)c4c(O)cc(OC)c(c5c(OC)cc(O)c(c1=O)c52)c43` [calphostin C], for which the “effect on GCGb-stimulated SL release” value in the assay on tilapia NIL cells [1] (20 nM test substance with GCGb 10 nM, 24 h) is “neither compound was able to block GCGb stimulated SL release”.

Regarding `C=C[C@@]1(C)CC(=O)[C@]2(O)[C@@]3(C)[C@@H](O)CCC(C)(C)[C@@H]3[C@H](O)[C@H](OC(C)=O)[C@@]2(C)O1` [forskolin], in the assay on tilapia NIL cells [1] (0.1–100 nM, 24 h), the “SL release, dose dependence” value is reported as “dose-dependently stimulated SL release”.

Regarding `Cc1cc(C)c(S(=O)(=O)Nc2cccc(C(F)(F)F)c2)c(C)c1` [m-3M3FBS], the “SL release, dose dependence” value in the assay with tilapia NIL cells [1] (0.01–10 µM) is given as “dose-dependently stimulated SL release”.

With `COC(=O)C1=C(C)NC(C)=C(C(=O)OC)C1c1ccccc1[N+](=O)[O-]` [nifedipine], the “effect on GCGb-stimulated SL release” value with tilapia NIL cells [1] (setting [8]) is “effective in blocking the stimulatory effect of GCGb on SL release and mRNA expression”. Further, the “effect on GCGb-stimulated SL mRNA expression” value in the assay with tilapia NIL cells [2] (setting [8]) was “effective in blocking the stimulatory effect of GCGb on SL release and mRNA expression”.

With `C/C=C(/C)C(=O)O[C@H]1C(C)=C2[C@H]([C@@H]1OC(=O)CCCCCCC)[C@@](C)(OC(C)=O)C[C@H](OC(=O)CCC)[C@@]1(O)[C@H]2OC(=O)[C@@]1(C)O` [thapsigargin], the “effect on GCGb-stimulated SL release” value in the assay on tilapia NIL cells [1] (setting [9]) was “effective in blocking the stimulatory effect of GCGb on SL release and mRNA expression”. Also, the “effect on GCGb-stimulated SL mRNA expression” value with tilapia NIL cells [2] (setting [9]) was “effective in blocking the stimulatory effect of GCGb on SL release and mRNA expression”.

As to `C1CCC[C@H]2CCCN3CC[C@@H](CCCCCC[C@@H]4CCCN5CC[C@@H](CC1)O[C@@H]45)O[C@@H]23` [xestospongin C], in the assay on tilapia NIL cells [1] (setting [6]), the “effect on GCGb-stimulated SL release” value is “suppressed”. Moreover, the “effect on basal SL release” value in the assay on tilapia NIL cells [1] (5 µM test substance, 24 h) is recorded as “suppressed”. Further, in the assay on tilapia NIL cells [2] (setting [6]), the “effect on GCGb-stimulated SL mRNA expression” value is “suppressed”. Moreover, in the assay on tilapia NIL cells [2] (5 µM test substance, 24 h), the “effect on basal SL mRNA levels” value was “suppressed”.

With “GCG: Glucagon, a 29 amino acid peptide hormone derived from proglucagon (cited work, species not stated)”, the “production of IP3” value with rat hepatocytes [3] was “induce the production of IP3”. In addition, the “Ca^2+ release” value with rat hepatocytes [4] was “can mediate Ca^2+ release from both intracellular Ca^2+ store and extracellular Ca^2+ influx”.

On to “des-His1-[Nle9-Ala11-Ala16] GCG antagonist”, for which the “effect on GCGb-stimulated SL release” value in the assay on tilapia NIL cells [1] (setting [7]) is on record as “stimulatory effect could be blocked”. In addition, the “block of the action of fish glucagon” value in the assay with fish glucagon is listed as “could block the action of fish glucagon”.

Take “human GCG: human glucagon, synthesized by GL Biochem”: in the assay with tilapia GCGRa (fold less potent than tilapia GCGa), the “potency at tilapia GCGRa relative to tilapia GCGa (fold less potent)” value was 80 fold. For the same molecule, the EC50 (commonly the concentration needed to bring the measured effect to its halfway point) in the assay on tilapia GCGRa (tilapia GCGRa, HEK293, CRE-luciferase (cAMP), 24 h treatment, 37°C, Luc ratio to Renilla, N = 3) turned out to be 240 nM; with tilapia GCGRb it was 6.37 nM.

mouse GCG: mouse glucagon (cited work): the “activation of zebrafish GCGRb” value with GCGRb is “potently activated”.
